Source: publication PMC4191406, “Tumor-targeted in vivo gene silencing via systemic delivery of cRGD-conjugated siRNA” (Nucleic Acids Research, 2014)

Assay: Serum cytokines by ELISA (innate immune response)
Assay type: in vivo, athymic nude mice (nu/nu)
Conditions: single injection 1 nmol, 6 and 24 h after the injection, n = 3, versus saline
Description: Athymic nude female mice (nu/nu) were injected with 1 nmol (∼0.753 mg/kg; n = 3) of cRGD-siRNA or 1 nmol of cRGD alone (∼0.045 mg/kg; n = 3) in 150 μl of saline. Mice (n = 3) injected with saline alone (200 μl) were used as negative controls. Six hours and 24 h after the injection, 300 μl of blood was drawn from each mouse and the serum was collected. Levels of serum cytokines IFN-α, IFN-γ, IL-6 and IL-12 were determined by ELISA, following manufacturer's recommendations (eBioscience/Affymetrix, USA).

serum levels of interferons α and γ, interleukins 6 and 12: No significant difference
Compound: N=C(N)NCCC[C@@H]1NC(=O)[C@H](CCCCNC(=O)COCCOCCNC(=O)CCN2C(=O)C=CC2=O)NC(=O)[C@@H](Cc2ccccc2)NC(=O)[C@H](CC(=O)O)NC(=O)CNC1=O [cRGD, cyclo(Arg-Gly-Asp-D-Phe-Lys[PEG-MAL])]
